Test results as given in patent USRE29883E, “Antibacterial product” (Cosan Chemical Corporation, priority 1977, dated 1979).

Experiments:
[1] = data available from Dow Chemical on Dowicil 100; cited from earlier work
[2] = data available from Dow Chemical on Dowicil 200; cited from earlier work
[3] = Acute Oral LD50; settings: in vivo, standard, accepted protocols
Excerpt: (§1) Both the acute oral LD50 and acute dermal LD50 tests were run in accordance with standard, accepted protocols.

[4] = Acute Dermal LD50; settings: in vivo, topical or ocular, standard, accepted protocols
Excerpt: as §1

[5] = system: Pseudomonas aeruginosa; assay: antibacterial properties of latex paint inoculated with Pseudomonas aeruginosa (Example 4); settings: 3.6 grams adduct in vinyl acrylic paint
Procedure: To a 1 gallon stainless steel beaker, equipped with a sheer type agitator, the following ingredients are charged in sequence:
This premix is then added to the above with agitation such that excessive air is not incorporated. To the above prepared combination is added 1,401 grams of a vinyl acrylic resin emulsion and mixed for a period of 10 minutes.
The resulting paint prepared above was examined for antibacterial properties by inoculating a portion with approximately 10^8 organisms per ml Pseudomonas aeruginosa. Paint samples returned to sterility within 24 hours of inoculation and maintained the same degree of preservation for periods in excess of 9 months, at which time the testing was discontinued.

[6] = system: bacterial cultures; assay: microbial stability of oil-water hair dressing emulsion (Example 5); settings: 0.2% adduct in oil-water hair dressing emulsion; after 6 months at 35° C
Procedure: The following is a formulation for an oil-water hair dressing emulsion: […]
Part A is heated to 75° C. and Part B is heated to 70° C. The test compound (Part C) is dissolved in Part B and the resulting solution added to Part A with good agitation. The mixture was perfumed 45° C. and agitated until cold.
The composition prepared above was tested for microbial stability for a period of 6 months and after 6 months at 35° C.

[7] = system: common forms of bacteria; assay: antimicrobial effectiveness in water-based systems, general statement; settings: relative to suggested range 0.05% to 0.20%
Excerpt: The two-to-one quaternary ammonium adduct of this invention is useful in the preparation and storage of systems susceptible to deterioration by microorganisms such as the common forms of bacteria. The exact concentration of the adduct during use is dependent upon a number of factors including duration of storage, temperature of storage, etc.

[8] = system: gram positive and gram negative microorganisms; assay: antimicrobial spectrum, general statement
Excerpt: The two-to-one quaternary ammonium adduct of this invention is particularly useful as an antimicrobial agent in a wide variety of water-based systems such as latex paints, resin emulsions, joint cement, adhesives, dispersed pigments and dyes, and other similar aqueous compositions.

[9] = water solubility; type: physicochemical
[10] = thermal decomposition; type: physicochemical
[11] = toxicological comparison with the one-to-one adducts (acute dermal and acute oral LD50); type: in vivo
Excerpt: Additionally, the two-to-one adduct formed from hexamethylenetetramine and 3,4-dichlorobutene-1 according to this invention is less toxic than either the Frank or Wolf one-to-one adducts.
as §1

SMILES	Acute Oral LD50 [1] [mg/kg]	Acute Dermal LD50 [2] [mg/kg]	LD50 [3] [mg/kg]	LD50 [4] [mg/kg]	preservation of paint viscosity, stability and performance characteristics [5]	time for paint samples to return to sterility after inoculation ([5]; approximately 10^8 organisms per ml Pseudomonas aeruginosa) [h]	period for which the same degree of preservation was maintained ([5]; testing then discontinued) [months]	resistance to bacterial contamination on inoculation with bacterial cultures [6]	minimal inhibitory concentrations vis-a-vis the common bacteria [7]	effectiveness against microorganisms [8]	water solubility [9]	decomposition point [10]	toxicity relative to the Frank or Wolf one-to-one adducts [11]
ClC=CC[N+]12CN3CN(CN(C3)C1)C2	745	540											
ClCC=CC[N+]12CN3CN(CN(C3)C1)C2 [reference compound]			1600	2000									
C(=CC[N+]12CN3CN(CN(C3)C1)C2)C[N+]12CN3CN(CN(C3)C1)C2 [1,1'-(but-2-enylene) bis(3,5,7-triaza-1-azoniaadamantane chloride)]			3400	8000	maintained the viscosity, stability and performance characteristics of the paint	≤ 24	> 9	still resistant to bacterial contamination	much less than this suggested range	effective against a broad spectrum of gram positive and gram negative microorganisms	water-soluble	about 130 °C	less toxic
